Calls of active or inactive are those of the source. The rule behind the calls is not given here.
Assays:
A2780 [1] = assay: Induction of cell cycle arrest in human A2780 cells assessed as accumulation of cells at G2/M phase at 0.4 uM incubated for 24 hrs by BrdU staining based flow cytometry (reference value: 6.2 %); type: functional
A2780 [2] = assay: Induction of cell cycle arrest in human A2780 cells assessed as reduction of Cyclin D1 expression at 0.4 uM incubated for 24 hrs by flow cytometry (reference value: 92.5 %); type: functional; set-up: scale not given: the % may be the effect or the level left
A2780 [3] = assay: Induction of cell cycle arrest in human A2780 cells assessed as reduction of Cyclin D1 expression at 0.8 uM incubated for 24 hrs by flow cytometry (reference value: 92.5 %); type: functional; set-up: scale not given: the % may be the effect or the level left
A2780 [4] = assay: Inhibition of cell invasion in human A2780 cells incubated for 24 hrs by crystal violet staining based transwell assay; type: functional
[5] = Toxicity in BALB/c mouse xenografted with human SK-OV-3 cells assessed as behavioral change at 2 to 5 mg/kg,ip administrated for 21 consecutive days; type: organism-based; settings: in vivo, dose 2-5 mg/kg
A2780 [6] = assay: Induction of cell cycle arrest in human A2780 cells assessed as reduction of CDK2 expression at 0.8 uM incubated for 24 hrs by flow cytometry (reference value: 92.5 %); type: functional; set-up: scale not given: the % may be the effect or the level left
SK-OV-3 [7] = assay: Induction of cell cycle arrest in human SK-OV-3 cells assessed as reduction of CDK2 expression at 0.4 uM incubated for 24 hrs by flow cytometry (reference value: 94.4 %); type: functional; set-up: scale not given: the % may be the effect or the level left
SK-OV-3 [8] = assay: Inhibition of colony formation in human SK-OV-3 cells assessed as reduction in colony size incubated for 10 days by crystal violet staining based analysis; type: functional, cell-based; settings: time 10.0 day
SK-OV-3 [9] = assay: Induction of cell cycle arrest in human SK-OV-3 cells assessed as accumulation of cells at G2/M phase at 0.4 uM incubated for 24 hrs by BrdU staining based flow cytometry (reference value: 6.3 %); type: functional
A2780 [10] = assay: Induction of apoptosis in human A2780 cells assessed as increase in caspase-8 activity at 0.8 uM incubated for 24 hrs by flow cytometry (reference value: 1.2 %); type: functional
A2780 [11] = assay: Induction of cell cycle arrest in human A2780 cells assessed as accumulation of cells at G2/M phase at 0.2 uM incubated for 24 hrs by BrdU staining based flow cytometry (reference value: 6.2 %); type: functional
A2780 [12] = assay: Induction of cell cycle arrest in human A2780 cells assessed as reduction of CDK2 expression at 0.4 uM incubated for 24 hrs by flow cytometry (reference value: 92.5 %); type: functional; set-up: scale not given: the % may be the effect or the level left
A2780 [13] = assay: Induction of cell cycle arrest in human A2780 cells assessed as accumulation of cells at G2/M phase at 0.8 uM incubated for 24 hrs by BrdU staining based flow cytometry (reference value: 6.2 %); type: functional
SK-OV-3 [14] = assay: Induction of cell cycle arrest in human SK-OV-3 cells assessed as accumulation of cells at G2/M phase at 0.8 uM incubated for 24 hrs by BrdU staining based flow cytometry (reference value: 6.3 %); type: functional
SK-OV-3 [15] = assay: Induction of apoptosis in human SK-OV-3 cells assessed as viable cells at 0.2 uM incubated for 24 hrs by Annexin V-FITC/7-AAD staining based flow cytometry (reference value: 94.6 %); type: functional; settings: read-out: Activity
SK-OV-3 [16] = assay: Antiproliferative activity against human SK-OV-3 cells assessed as inhibition of cell growth incubated for 72 hrs by MTT assay; type: functional, cell-based; settings: SK-OV-3, 72 h
[17] = target: Signal transducer and activator of transcription 3 (Homo sapiens) (UniProt P40763); assay: Inhibition of STAT3 in human SK-OV-3 cells assessed as downregulation of cytoplasmic STAT3 expression at 0.2 uM incubated for 24 hrs by Hoechst33342 staining based immunofluorescence assay; type: cell-based
OVCAR-3 = assay: Antiproliferative activity against human OVCAR-3 cells assessed as inhibition of cell growth incubated for 72 hrs by MTT assay; type: functional, cell-based; settings: OVCAR-3, 72 h
A2780 [18] = assay: Induction of apoptosis in human A2780 cells assessed as viable cells at 0.2 uM incubated for 24 hrs by Annexin V-FITC/7-AAD staining based flow cytometry (reference value: 95 %); type: functional; settings: read-out: Activity
A2780 [19] = assay: Induction of cell cycle arrest in human A2780 cells assessed as reduction of CDK4 expression at 0.8 uM incubated for 24 hrs by flow cytometry (reference value: 93.6 %); type: functional; set-up: scale not given: the % may be the effect or the level left
SK-OV-3 [20] = assay: Inhibition of colony formation in human SK-OV-3 cells assessed as reduction in colony number incubated for 10 days by crystal violet staining based analysis; type: functional, cell-based; settings: time 10.0 day
SK-OV-3 [21] = assay: Induction of cell cycle arrest in human SK-OV-3 cells assessed as accumulation of cells at S phase at 0.2 uM incubated for 24 hrs by BrdU staining based flow cytometry (reference value: 33.6 %); type: functional
[22] = target: Signal transducer and activator of transcription 3 (Homo sapiens) (UniProt P40763); assay: Inhibition of STAT3 in human SK-OV-3 cells assessed as downregulation of STAT3 expression in nuclei at 0.2 uM incubated for 24 hrs by Hoechst33342 staining based immunofluorescence assay; type: cell-based
[23] = target: Signal transducer and activator of transcription 3 (Homo sapiens) (UniProt P40763); assay: Inhibition of STAT3 in human A2780 cells assessed as downregulation of cytoplasmic STAT3 phosphorylation at Ser727 residue at 0.2 uM incubated for 24 hrs by Hoechst33342 staining based immunofluorescence assay; type: cell-based
SK-OV-3 [24] = assay: Induction of apoptosis in human SK-OV-3 cells assessed as increase in caspase-3 activity at 0.8 uM incubated for 24 hrs by flow cytometry (reference value: 4.6 %); type: functional
A2780 [25] = assay: Induction of apoptosis in human A2780 cells assessed as late apoptotic cells at 0.8 uM incubated for 24 hrs by Annexin V-FITC/7-AAD staining based flow cytometry (reference value: 2.1 %); type: functional
A2780 [26] = assay: Inhibition of colony formation in human A2780 cells assessed as reduction in colony size incubated for 10 days by crystal violet staining based analysis; type: functional, cell-based; settings: time 10.0 day
A2780 [27] = assay: Antiproliferative activity against human A2780 cells assessed as decrease in CD44 positive CD24 negative cells expression at 0.2 uM incubated for 24 hrs by FITC staining based flow cytometry (reference value: 28.13 %); type: functional; set-up: scale not given: the % may be the effect or the level left
SK-OV-3 [28] = assay: Antitumor activity against human SK-OV-3 cells xenografted in BALB/c mouse assessed as appearance of shrunken nucleus in tumor tissue at 2 to 5 mg/kg,ip administrated for 21 consecutive days by hematoxylin and eosin staining based assay; type: functional, organism-based; settings: dose 2-5 mg/kg
[29] = target: Tyrosine-protein kinase JAK2 (Homo sapiens) (UniProt O60674); assay: Inhibition of JAK2 in human SK-OV-3 cells assessed as downregulation of JAK2 expression at 0.1 to 0.4 uM incubated for 24 hrs by Western blotting analysis; type: cell-based; settings: dose 0.1-0.4 µM
SK-OV-3 [30] = assay: Induction of apoptosis in human SK-OV-3 cells assessed as late apoptotic cells at 0.8 uM incubated for 24 hrs by Annexin V-FITC/7-AAD staining based flow cytometry (reference value: 3.7 %); type: functional
Mitochondrial membrane = assay: Induction of mitochondrial membrane potential loss in human A2780 cells at 0.1 uM incubated for 24 hrs by JC-1 staining based flow cytometry (reference value: 81 %)
SK-OV-3 [31] = assay: Induction of cell cycle arrest in human SK-OV-3 cells assessed as accumulation of cells at S phase at 0.8 uM incubated for 24 hrs by BrdU staining based flow cytometry (reference value: 33.6 %); type: functional

Chain of Signal transducer and activator of transcription 3 (Homo sapiens) (P40763 whole entry): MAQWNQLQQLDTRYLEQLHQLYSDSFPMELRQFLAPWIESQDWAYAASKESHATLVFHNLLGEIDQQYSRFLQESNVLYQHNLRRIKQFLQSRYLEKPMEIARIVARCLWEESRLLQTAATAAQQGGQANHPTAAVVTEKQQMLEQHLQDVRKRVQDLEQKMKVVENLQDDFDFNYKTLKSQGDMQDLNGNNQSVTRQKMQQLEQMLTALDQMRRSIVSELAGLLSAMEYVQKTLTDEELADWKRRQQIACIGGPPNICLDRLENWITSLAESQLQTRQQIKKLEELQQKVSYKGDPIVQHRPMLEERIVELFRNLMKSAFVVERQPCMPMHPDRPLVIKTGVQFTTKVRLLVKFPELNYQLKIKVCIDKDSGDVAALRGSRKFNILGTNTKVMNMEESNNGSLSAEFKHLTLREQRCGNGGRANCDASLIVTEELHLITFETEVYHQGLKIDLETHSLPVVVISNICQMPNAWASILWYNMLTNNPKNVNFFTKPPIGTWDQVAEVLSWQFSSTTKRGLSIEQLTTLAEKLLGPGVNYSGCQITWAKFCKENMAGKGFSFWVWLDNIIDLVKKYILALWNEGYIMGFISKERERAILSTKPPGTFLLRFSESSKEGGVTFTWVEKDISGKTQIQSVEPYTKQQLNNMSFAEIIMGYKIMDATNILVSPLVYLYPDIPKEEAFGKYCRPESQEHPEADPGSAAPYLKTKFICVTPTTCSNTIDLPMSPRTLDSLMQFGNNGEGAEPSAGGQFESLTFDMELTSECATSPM
Chain of Tyrosine-protein kinase JAK2 (Homo sapiens) (O60674 whole entry): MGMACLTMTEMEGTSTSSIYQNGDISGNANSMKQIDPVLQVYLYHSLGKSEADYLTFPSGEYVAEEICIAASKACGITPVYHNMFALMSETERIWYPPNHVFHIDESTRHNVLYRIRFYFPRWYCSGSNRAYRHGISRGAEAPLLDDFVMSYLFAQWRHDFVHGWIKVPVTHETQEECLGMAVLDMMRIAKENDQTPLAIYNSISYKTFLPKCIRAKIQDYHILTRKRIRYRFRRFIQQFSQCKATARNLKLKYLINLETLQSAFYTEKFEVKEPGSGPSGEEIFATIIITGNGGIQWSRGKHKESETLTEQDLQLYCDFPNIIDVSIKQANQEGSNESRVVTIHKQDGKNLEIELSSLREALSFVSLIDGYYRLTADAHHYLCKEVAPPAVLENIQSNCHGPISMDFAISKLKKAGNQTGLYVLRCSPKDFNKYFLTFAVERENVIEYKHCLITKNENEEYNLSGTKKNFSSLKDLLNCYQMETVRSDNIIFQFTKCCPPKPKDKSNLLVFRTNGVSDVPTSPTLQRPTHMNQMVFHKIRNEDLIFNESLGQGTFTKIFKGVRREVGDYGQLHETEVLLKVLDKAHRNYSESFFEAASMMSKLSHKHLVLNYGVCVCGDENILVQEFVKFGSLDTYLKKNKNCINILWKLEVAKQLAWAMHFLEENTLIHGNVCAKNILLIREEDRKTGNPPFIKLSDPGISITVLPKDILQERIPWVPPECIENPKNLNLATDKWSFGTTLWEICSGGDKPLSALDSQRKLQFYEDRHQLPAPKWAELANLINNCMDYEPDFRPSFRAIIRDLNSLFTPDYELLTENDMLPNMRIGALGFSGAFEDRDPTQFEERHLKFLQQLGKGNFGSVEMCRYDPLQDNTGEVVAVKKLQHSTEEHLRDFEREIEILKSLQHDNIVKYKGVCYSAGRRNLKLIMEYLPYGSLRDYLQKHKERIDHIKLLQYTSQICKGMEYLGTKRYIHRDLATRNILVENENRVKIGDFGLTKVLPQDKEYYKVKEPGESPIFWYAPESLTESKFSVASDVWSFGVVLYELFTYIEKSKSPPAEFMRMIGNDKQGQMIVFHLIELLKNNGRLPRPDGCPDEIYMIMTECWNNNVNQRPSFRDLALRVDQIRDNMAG

- IC50 (SK-OV-3 [16]): 210 nM
- inhibition [17]: Active; Showed Mild Inhibition Activity
- IC50 (OVCAR-3): 250 nM
- inhibition [22]: Active
- inhibition [23]: Active; Showed Mild Inhibition Activity
- inhibition [29]: Active
- Activity (Mitochondrial membrane): 56.4%
SMILES: CC1=C(O)C(=O)C=C2C1=CC=C1[C@@]2(C)CC[C@@]2(C)[C@@H]3C[C@](C)(C(=O)N4CCNCC4)CC[C@]3(C)CC[C@]12C
- Activity (A2780 [1]): 10.1%
- Activity (A2780 [2]): 67.7%
- Activity (A2780 [3]): 15%
- inhibition (A2780 [4]): Dose-dependent-effect
- Activity [5]: Non-toxic
- Activity (A2780 [6]): 8.6%
- Activity (SK-OV-3 [7]): 80.7%
- inhibition (SK-OV-3 [8]): Dose-dependent-effect
- Activity (SK-OV-3 [9]): 7.4%
- Activity (A2780 [10]): 12%
- Activity (A2780 [11]): 4.8%
- Activity (A2780 [12]): 69.9%
- Activity (A2780 [13]): 24.3%
- Activity (SK-OV-3 [14]): 18.2%
- viability at 0.2 µM (SK-OV-3 [15]): 74.2%
- viability at 0.2 µM (A2780 [18]): 89.3%
- Activity (A2780 [19]): 18.7%
- inhibition (SK-OV-3 [20]): Dose-dependent-effect
- Activity (SK-OV-3 [21]): 33.8%
- Activity (SK-OV-3 [24]): 33.8%
- Activity (A2780 [25]): 66.7%
- inhibition (A2780 [26]): Dose-dependent-effect
- Activity (A2780 [27]): 17.97%
- Activity (SK-OV-3 [28]): Active
- Activity (SK-OV-3 [30]): 17.4%
- Activity (SK-OV-3 [31]): 37.2%
